Reference: US9586957B2, “2-keto amide derivatives as HIV attachment inhibitors” (priority 2013, dated 2017)
pEC50: −log10 of the molar value. Read-outs that look alike come from different tables or passages of the source.

System: HIV-1 LAI
Assay: Single-round infectious HIV-1 LAI envelope luciferase reporter virus infection of MT2 cells
Assay type: cell-based
Settings: Human immunodeficiency virus 1, MT2, 72 h
From the text: • Virus production—Human embryonic Kidney cell line, 293T (HEK 293T), was propagated in Dulbecco's Modified Eagle Medium (Invitrogen, Carlsbad, Calif.) containing 10% fetal bovine serum (FBS, Sigma, St. Louis, Mo.). The human T-cell leukemia cell MT2 (AIDS Research and Reference Reagent Program, Cat. 237) was propagated in RPMI 1640 (Invitrogen, Carlsbad, Calif.) containing 10% fetal bovine serum (FBS, Hyclone, Logan, Utah) • Virus infection—Single-round infectious reporter virus was produced by co-transfecting HEK 293T cells with plasmide expressing the HIV-1 LAI envelope along with a plasmid containing an HIV-1 LAI proviral cDNA with the envelope gene replaced by a firefly luciferase reporter gene (Chen et al., Ref 41). Transfections were performed using lipofectAMINE PLUS reagent as described by the manufacturer (Invitrogen, Carlsbad, Calif.). Experimental Procedure • 1. MT2 cells were plated in black, 384 well plates at a cell density of 5×10^3 cells per well in 25 μl RPMI 1640 containing 10% FBS. • 2. Compound (diluted in dimethylsulfoxide and growth medium) was added to cells at 12.5 μl/well, so that the final assay concentration would be ≦50 nM. • 3. 12.5 μl of single-round infectious reporter virus in Dulbecco's Modified Eagle
Medium was added to the plated cells and compound at an approximate multiplicity of infection (MOI) of 0.01, resulting in a final volume of 50 μl per well. • 4. Virus-infected cells were incubated at 37 degrees Celsius in a CO2 incubator and harvested 72 h after infection. • 5. Viral infection was monitored by measuring luciferase expression in the infected cells using a luciferase reporter gene assay kit (Steady-Glo, Promega, Madison, Wis.) as described by the manufacturer. Luciferase activity was then quantified by measuring luminescence using an EnVision Multilabel Plate Readers (PerkinElmer, Waltham, Mass.). • 6. The percent inhibition for each compound was calculated by quantifying the level of luciferase expression in cells infected in the presence of each compound as a percentage of that observed for cells infected in the absence of compound and subtracting such a determined value from 100. • 7. An EC50 provides a method for comparing the antiviral potency of the compounds of the invention. The effective concentration for fifty percent inhibition (EC50) was calculated with the Microsoft Excel Xlfit curve fitting software. For each compound, curves were generated from percent inhibition calculated at 10 different concentrations by using a four parameter logistic model (model 205). Table 1 is the key for the data in Table 2.

[1] = read-out: EC50 Group from Table 1

## O=C(C(=O)N1CCC(c2ccccc2)C1)c1c[nH]c2c(-n3ccnn3)ncc(F)c12 (centres unmarked) [Compound 1001]
  pEC50: 7.42
[1]
  pEC50: > 6.30

## O=C(C(=O)N1CCC[C@H](c2ccccc2)C1)c1c[nH]c2c(-n3ccnn3)ncc(F)c12 [Compound 1002]
[1]
  pEC50: > 6.30

## O=C(C(=O)N1CCCC(c2ccc(Cl)cc2)C1)c1c[nH]c2c(-n3ccnn3)ncc(F)c12 (centres unmarked) [Compound 1003]
[1]
  pEC50: < 6.30

## O=C(C(=O)N1CCCC(c2cccc(F)c2)C1)c1c[nH]c2c(-n3ccnn3)ncc(F)c12 (centres unmarked) [Compound 1004]
[1]
  pEC50: < 6.30

## O=C(C(=O)N1CCCC(Cc2ccccc2)C1)c1c[nH]c2c(-n3ccnn3)ncc(F)c12 (centres unmarked) [Compound 1005]
[1]
  pEC50: < 6.30

## O=C(C(=O)N1CCCC(c2ccccc2)CC1)c1c[nH]c2c(-n3ccnn3)ncc(F)c12 (centres unmarked) [Compound 1006]
[1]
  pEC50: > 6.30

## O=C(C(=O)N1CCC(Nc2ccccc2)C1)c1c[nH]c2c(-n3ccnn3)ncc(F)c12 (centres unmarked) [Compound 1007]
[1]
  pEC50: > 6.30

## COc1cnc(-n2cnc(C)n2)c2[nH]cc(C(=O)C(=O)N3CCC(=C(C#N)c4ccccc4)C3)c12 [Compound 1008]
  pEC50: 7.72
[1]
  pEC50: > 6.30

## O=C(C(=O)N1CCC(Oc2ccccc2)CC1)c1c[nH]c2c(-n3ccnn3)ncc(F)c12 [Compound 1009]
[1]
  pEC50: > 6.30

## O=C(C(=O)N1CCC(Nc2ccccc2)CC1)c1c[nH]c2c(-n3ccnn3)ncc(F)c12 [Compound 1010]
  pEC50: 7.38
[1]
  pEC50: > 6.30

## CCC(=O)N(c1ccccc1)C1CCN(C(=O)C(=O)c2c[nH]c3c(-n4ccnn4)ncc(F)c23)CC1 [Compound 1011]
[1]
  pEC50: > 6.30

## COc1ccnc2[nH]cc(C(=O)C(=O)N3CCC(Oc4ccccc4)CC3)c12 [Compound 1012]
[1]
  pEC50: > 6.30

## COc1ncc(OC)c2c(C(=O)C(=O)N3CCC(Oc4ccccc4)CC3)c[nH]c12 [Compound 1013]
[1]
  pEC50: < 6.30

## COc1ccnc2[nH]cc(C(=O)C(=O)N3CCC(Oc4ccc(Cl)cc4)CC3)c12 [Compound 1014]
  pEC50: 6.12
[1]
  pEC50: < 6.30

## COc1ncc(OC)c2c(C(=O)C(=O)N3CCC(Oc4ccc(Cl)cc4)CC3)c[nH]c12 [Compound 1015]
[1]
  pEC50: < 6.30

## O=C(C(=O)N1CCCC(Oc2ccccc2)C1)c1c[nH]c2cccc(F)c12 (centres unmarked) [Compound 1016]
[1]
  pEC50: < 6.30

## NC(=O)C1(Nc2ccccc2)CCN(C(=O)C(=O)c2c[nH]c3ccccc23)CC1 [Compound 1017]
[1]
  pEC50: < 6.30

## O=C(C(=O)N1CCC(Nc2cccc(S(=O)(=O)C(F)(F)F)c2)CC1)c1c[nH]c2ccccc12 [Compound 1018]
[1]
  pEC50: < 6.30

## O=C(C(=O)N1CCC(c2cccc(C(F)(F)F)c2)C(O)C1)c1c[nH]c2ccccc12 (centres unmarked) [Compound 1019]
[1]
  pEC50: < 6.30

## COc1ccc(OC2CN(C(=O)C(=O)c3c[nH]c4c(-n5ccnn5)ncc(F)c34)C2)cc1 [Compound 1020]
[1]
  pEC50: > 6.30

## COc1cnc(-n2cnc(C)n2)c2[nH]cc(C(=O)C(=O)N3CCc4ncn(-c5ccccc5)c4CC3)c12 [Compound 2001]
  pEC50: 10.05
[1]
  pEC50: > 6.30

## COc1cnc(-n2cnc(C)n2)c2[nH]cc(C(=O)C(=O)N3CCc4nn(-c5ccccc5)cc4C3)c12 [Compound 2002]
  pEC50: 9.04
[1]
  pEC50: > 6.30

## COc1cnc(-n2cnc(C)n2)c2[nH]cc(C(=O)C(=O)N3Cc4nn(-c5ccccc5)c(N)c4C3)c12 [Compound 2003]
[1]
  pEC50: > 6.30
